In the experiment the target is T1, wild type HOIP RBR domain (Homo sapiens, UniProt Q96EP0).
T1 construct: made in house; host or cells: E. coli BL21-GOLD(DE3)
T1 sequence (Q96EP0 697-1072): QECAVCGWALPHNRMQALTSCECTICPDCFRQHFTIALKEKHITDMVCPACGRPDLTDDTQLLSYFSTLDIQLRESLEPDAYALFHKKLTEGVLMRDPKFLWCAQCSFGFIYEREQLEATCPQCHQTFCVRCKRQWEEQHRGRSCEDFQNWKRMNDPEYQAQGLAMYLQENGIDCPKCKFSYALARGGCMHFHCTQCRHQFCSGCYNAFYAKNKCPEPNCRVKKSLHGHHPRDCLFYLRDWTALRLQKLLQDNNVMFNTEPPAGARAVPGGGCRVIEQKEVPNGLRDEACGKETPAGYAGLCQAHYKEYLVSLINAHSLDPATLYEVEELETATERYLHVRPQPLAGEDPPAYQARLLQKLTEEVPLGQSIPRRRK
The experiment is described as follows: Protein LC-MS kinetics of covalent labeling. It counts as binding. As for the experimental part:
negative control and compound solutions data points were acquired after 0.5, 4, and 24 h […]
Protocol as described above, using the HOIP RBR C885S mutant (155 µM stock solution in 50 mM HEPES, 150 mM NaCl, 1 mM DTT, pH 7.5) and 50 mM HEPES, 150 mM NaCl, pH 7.5 buffer.
The stock solution at 4 µM (25 µL per sample, final concentration 2 µM, 87 µg/mL), was mixed with buffer (24.5 µL) and compound (5) (0.5 µL of 2, and 20 mM stock solutions in DMSO, giving a final concentration of 20 and 200 µM respectively, and 1% DMSO). Data points were acquired after 0.5 and 4 h incubation.
The HOIP RBR domain wild type was diluted with 50 mM HEPES, 150 mM NaCl, pH 7.5 buffer to afford a new stock solution at 2.02 µM, which was aliquoted into 10 × 297 µL. Compound (5) stock solutions (3.0 µL each) at 0, 0.2, 0.8, 2, 4, 10, 20 and 40 mM in DMSO were added to give final compound concentrations at 0, 2, 8, 20, 40, 100, 200 and 400 µM respectively. Immediately after addition the samples were vortexed briefly and the time zero aliquots (25 µL) withdrawn, flash frozen in liquid nitrogen and stored at -80 °C. The protein solutions were incubated at 800 rpm (Eppendorf Thermomixer), 23 °C. Additional aliquots (all 25 µL) were similarly withdrawn after […]
thawed individually and analyzed by protein mass spectrometry as described above. The total ion counts (TICs) detected for unlabelled HOIP and labelled HOIP-(5) conjugate within a peak elution range of 10 seconds were used to calculate the ratio of labelled HOIP RBR over total HOIP RBR content for each sample. The averaged data from 3 independent experiments were analyzed according to a two-step model of reversible ligand binding followed by irreversible covalent modification (Supplementary Figure S2A),11 fitted to a single exponential equation (equation 1, Supplementary Figure S2B) using GraFit (v.7). The observed rate constants (kobs) relate to Kd and kinact as depicted in equation 2 (Supplementary Figure S2C), although for compounds with weak affinities (such as fragments) the Kd is typically larger than the highest tested compound concentration (limited by aqueous solubility), and the kobs display a linear relationship to compound concentration, and a slope that equals to kinact/Kd (Figure 3D, Supplementary Figure […]
Protein labelling: The HOIP RBR domain (16 µM) in buffer (50 mM HEPES, 150 mM NaCl, pH 7.5) was incubated with compound (5) (267 µM; 16-fold excess) at ambient temperature at 600 rpm (Heidolph Instruments) for 21 h. The protein was purified on a buffer exchanged spin chromatography column (Micro Bio-spin 6, Bio-Rad Laboratories) according to the vendor’s instructions to afford a stock solution of the HOIP RBR-(5) complex at a concentration of 7.6 µM (0.33 mg/mL) as determined by Nanodrop UV spectrophotometer. […]

SMILES strings stand for the structures.

Regarding `COC(=O)/C=C/CNC(=O)c1cc2c([nH]c1=O)CCC2` [Compound 5], the kinact/Kd (gradient of kobs vs concentration, 0-400 μM, 2 μM protein) amounted to 0.97 ± 0.01 M^–1 s^–1. In addition, the “ligand efficiency, LE” value (inferred from lower limit of Kd) is recorded as less than 0.24. Where the note is “lower limit, following from Kd limit”, the kinact is greater than 0.0004 s⁻¹. The molecule also showed a dissociation constant (Kd) (lower limit, kobs linear across range tested) greater than 400 µM.

The values above are taken from article PMC6383986, “Fragment-Based Covalent Ligand Screening Enables Rapid Discovery of Inhibitors for the RBR E3 Ubiquitin Ligase HOIP” (Journal of the American Chemical Society, 2019).
